Experiments:
PDK1 = target: T1, PDK1 (Homo sapiens, UniProt O15530); test: Test for the inhibition of PDK1 (flashplate, 33P-ATP); type: biochemical; conditions: His6-PDK1 3.4 nM, 4 μM ATP, 30° C., 60 min
T1 construct: His6 (N)
Method: The experimental batches are carried out in a flashplate system with 384 wells/microtitration plate.
In each case, the PDK1 sample His6-PDK1(SEQ ID NO: 2)(1-50)(3.4 nM), the PDK1 substrate biotin-bA-bA-[…] (SEQ ID NO: 3) (400 nM), 4 μM ATP (with 0.2 μCi of ^33P-ATP/well) and the test substance in 50 μl of conventional experimental solution per well are incubated at 30° C. for 60 min. The test substances are employed in corresponding concentrations (if desired in a dilution series). The control is carried out without test substance. The reaction is stopped using standard methods and washed. The activity of the kinase is measured via the incorporated radioactivity in top count. In order to determine the non-specific kinase reaction (blank value), the experimental batches are carried out in the presence of 100 nM staurosporin.
The radioactivity (decompositions per minute) of the blank value (no use of test substance in the presence of staurosporin) is subtracted from all other radioactivity values. The controls (kinase activity without test substance) are set equal to 100 percent and all other radioactivity values (after subtracting the blank value) are expressed set in relation thereto (for example in % of the control).
IC50 values (50% inhibition) are determined with the aid of statistics programmes, such as, for example, RS1.

[1] = tested on: PDK1 kinase activity in PC3 cells (phospho-T308-PKB); test: Cellular testing of PDK1 kinase inhibitors in PC3 cells (Luminex, phospho-T308-PKB); type: cell-based; conditions: Homo sapiens, PC-3, 0.5 h, 30 min with test substance, serum-free, phospho-T308-PKB by Luminex, read-out: IC50 [PC3 P-PKB Thr308]
Method: Method for the Cellular Testing of PDK1 Kinase Inhibitors in PC3 Cells.
The cellular assay for the determination of the PDK1 kinase activity is carried out as a Luminex assay in the 96-well format. PC3 cells are sown at 20,000 cells per well in 100 μl of medium (45% of […]/45% of Ham's F12/10% of FCS) and incubated on the following day for 30 min with a serial dilution of the test substance (7 concentrations) under serum-free conditions. The cells are subsequently lysed using 90 μl of lysis buffer (20 mM tris/HCl pH 8.0, 150 mM NaCl, 1% of NP40, 10% of glycerol, 1% of phosphatase inhibitor I, 1% of phosphatase inhibitor II, 0.1% of protease inhibitor cocktail III, 0.01% of benzonase) per well, and the lysates are separated off from insoluble cell constituents by means of centrifugation through a 96-well filter plate (0.65 μm). The lysates are incubated overnight at 4° C. with shaking with Luminex beads to which an anti-total PKB antibody is coupled. The detection is carried out on the following day by addition of a phospho-T308-PKB antibody and a species-specific […] secondary antibody. The detection of phospho-T308-PKB is carried out by measurement in a Luminex100 instrument by determination of 100 events per cavity in a measurement time of 60 sec. As pharmacological blank, the signals obtained from cells which have been treated with 10 μM staurosporin are subtracted from all other batches. The control value used for maximum phosphorylation of PKB on T308 are the signals from cells which have only been treated with the solvent (0.3% of DMSO). The values of the batches treated with test substance are calculated therefrom as percentage of control, and IC50 values are determined by means of RS1.

T1 sequence (O15530 51-556): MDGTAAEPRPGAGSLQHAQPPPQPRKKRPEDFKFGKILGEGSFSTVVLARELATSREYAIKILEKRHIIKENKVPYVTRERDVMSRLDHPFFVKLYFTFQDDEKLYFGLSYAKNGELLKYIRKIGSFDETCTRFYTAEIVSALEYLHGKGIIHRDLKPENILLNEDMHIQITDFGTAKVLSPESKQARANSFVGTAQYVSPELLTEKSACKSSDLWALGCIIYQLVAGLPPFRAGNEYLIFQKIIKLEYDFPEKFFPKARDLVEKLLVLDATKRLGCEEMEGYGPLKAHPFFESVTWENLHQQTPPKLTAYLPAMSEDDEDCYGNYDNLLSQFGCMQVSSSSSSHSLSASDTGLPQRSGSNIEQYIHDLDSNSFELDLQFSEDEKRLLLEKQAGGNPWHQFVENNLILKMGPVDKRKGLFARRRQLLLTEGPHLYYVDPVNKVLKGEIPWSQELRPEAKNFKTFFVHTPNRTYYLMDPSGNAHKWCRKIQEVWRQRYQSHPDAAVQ

SMILES: CC(C)n1cc(-c2cnc3[nH]cc(-c4cc(C5(O)CCN(C(=O)OCc6ccccc6)CC5)nc(N)n4)c3c2)cn1 [Compound A122, 4-{2-Amino-6-[5-(1-isopropyl-1H-pyrazol-4-yl)-1H-pyrrolo[2,3-b]pyridin-3-yl]-pyrimidin-4-yl}-4-hydroxypiperidine-1-carboxylic acid benzyl ester]
- IC50 (PDK1): 10 to 1000 nM
- IC50 [1]: 10 to 20 µM

SMILES: Nc1nc(-c2c[nH]c3ncccc23)cc(C2(O)CCN(C(=O)OCc3ccccc3)CC2)n1 [Compound A113, 4-[2-Amino-6-(1H-pyrrolo[2,3-b]pyridin-3-yl)pyrimidin-4-yl]-4-hydroxypiperidine-1-carboxylic acid benzyl ester]
- IC50 (PDK1): 1000 to 10000 nM
- IC50 [1]: 1 to 10 µM

SMILES: CN(C)CCn1cc(-c2cnc3[nH]cc(-c4cc(CCCCO)nc(N)n4)c3c2)cn1 [Compound A39, 4-(2-Amino-6-{5-[1-(2-dimethylaminoethyl)-1H-pyrazol-4-yl]-1H-pyrrolo-[2,3-b]pyridin-3-yl}pyrimidin-4-yl)butan-1-ol]
- IC50 (PDK1): 10 to 1000 nM
- IC50 [1]: 10 to 20 µM

SMILES: CCc1cc(-c2c[nH]c3ncc(-c4cnn(CC(=O)N(C)C)c4)cc23)nc(N)n1 [Compound A34, 2-{4-[3-(2-Amino-6-ethylpyrimidin-4-yl)-1H-pyrrolo[2,3-b]pyridin-5-yl]pyrazol-1-yl}-N,N-dimethylacetamide]
- IC50 (PDK1): 10 to 1000 nM
- IC50 [1]: 10 to 20 µM

SMILES: CCc1cc(-c2c[nH]c3ncc(-c4ccc(Cl)s4)cc23)nc(N)n1 [Compound A37, 4-[5-(5-Chlorothiophen-2-yl)-1H-pyrrolo[2,3-b]pyridin-3-yl]-6-ethylpyrimidin-2-ylamine]
- IC50 (PDK1): 1000 to 10000 nM
- IC50 [1]: 10 to 20 µM

SMILES: CC(O)Cc1cc(-c2c[nH]c3ncc(-c4cnn(C(C)C)c4)cc23)nc(N)n1 (centres unmarked) [Compound A36, 1-{2-Amino-6-[5-(1-isopropyl-1H-pyrazol-4-yl)-1H-pyrrolo[2,3-b]pyridin-3-yl]-pyrimidin-4-yl}propan-2-ol]
- IC50 (PDK1): 10 to 1000 nM
- IC50 [1]: 10 to 20 µM

SMILES: CC(C)n1cc(-c2cnc3[nH]cc(-c4cc(CCC(=O)N(C)C)nc(N)n4)c3c2)cn1 [Compound A101, 3-{2-Amino-6-[5-(1-isopropyl-1H-pyrazol-4-yl)-1H-pyrrolo[2,3-b]pyridin-3-yl]-pyrimidin-4-yl}-N,N-dimethylpropionamide]
- IC50 (PDK1): 10 to 1000 nM
- IC50 [1]: 10 to 20 µM

SMILES: CC(C)n1cc(-c2cnc3[nH]cc(-c4cc(C5(O)CCN(CCc6ccc(F)cc6)CC5)nc(N)n4)c3c2)cn1 [Compound A116, 4-{2-Amino-6-[5-(1-isopropyl-1H-pyrazol-4-yl)-1H-pyrrolo[2,3-b]pyridin-3-yl]-pyrimidin-4-yl}-1-[2-(4-fluorophenyl)ethyl]piperidin-4-ol]
- IC50 (PDK1): 10 to 1000 nM
- IC50 [1]: 10 to 20 µM

SMILES: CCCCc1cc(-c2c[nH]c3ncc(-c4cnn(C5CCN(C(C)=O)CC5)c4)cc23)nc(N)n1 [Compound A86, 1-(4-{4-[3-(2-Amino-6-butylpyrimidin-4-yl)-1H-pyrrolo[2,3-b]pyridin-5-yl]-pyrazol-1-yl}piperidin-1-yl)ethanone]
- IC50 (PDK1): 10 to 1000 nM
- IC50 [1]: 1 to 10 µM

SMILES: CCc1cc(-c2c[nH]c3ncc(-c4cnn(CC(=O)NC5CCN(C)CC5)c4)cc23)nc(N)n1 [Compound A30, 2-{4-[3-(2-Amino-6-ethylpyrimidin-4-yl)-1H-pyrrolo[2,3-b]pyridin-5-yl]pyrazol-1-yl}-N-(1-methylpiperidin-4-yl)acetamide]
- IC50 (PDK1): 10 to 1000 nM
- IC50 [1]: 10 to 20 µM

SMILES: CCC(O)c1cc(-c2c[nH]c3ncc(-c4cnn(C(C)C)c4)cc23)nc(N)n1 (centres unmarked) [Compound A103, 1-{2-Amino-6-[5-(1-isopropyl-1H-pyrazol-4-yl)-1H-pyrrolo[2,3-b]pyridin-3-yl]-pyrimidin-4-yl}propan-1-ol]
- IC50 (PDK1): 10 to 1000 nM
- IC50 [1]: 10 to 20 µM

SMILES: CC(C)n1cc(-c2cnc3[nH]cc(-c4cc(CCCO)nc(N)n4)c3c2)cn1 [Compound A38, 3-{2-Amino-6-[5-(1-isopropyl-1H-pyrazol-4-yl)-1H-pyrrolo[2,3-b]pyridin-3-yl]-pyrimidin-4-yl}propan-1-ol]
- IC50 (PDK1): 10 to 1000 nM
- IC50 [1]: 10 to 20 µM

SMILES: CN1CCN(CCc2cc(-c3c[nH]c4ncccc34)nc(N)n2)CC1 [Compound A50, 4-[2-(4-Methylpiperazin-1-yl)ethyl]-6-(1H-pyrrolo[2,3-b]pyridin-3-yl)pyrimidin-2-ylamine]
- IC50 (PDK1): 1000 to 10000 nM
- IC50 [1]: 10 to 20 µM

SMILES: CCCCc1cc(-c2c[nH]c3ncc(-c4cnn(C5CCNCC5)c4)cc23)nc(N)n1 [Compound A87, 4-Butyl-6-[5-(1-piperidin-4-yl-1H-pyrazol-4-yl)-1H-pyrrolo[2,3-b]pyridin-3-yl]-pyrimidin-2-ylamine]
- IC50 (PDK1): 10 to 1000 nM
- IC50 [1]: 1 to 10 µM

SMILES: CCc1cc(-c2c[nH]c3ncc(-c4ccc(CN)cc4)cc23)nc(N)n1 [Compound A81, 4-[5-(4-Aminomethylphenyl)-1H-pyrrolo[2,3-b]pyridin-3-yl]-6-ethylpyrimidin-2-ylamine]
- IC50 (PDK1): 10 to 1000 nM
- IC50 [1]: 1 to 10 µM

SMILES: CCCCc1cc(-c2c[nH]c3ncc(-c4cnn(C5CCN(C)CC5)c4)cc23)nc(N)n1 [Compound A89, 4-Butyl-6-{5-[1-(1-methylpiperidin-4-yl)-1H-pyrazol-4-yl]-1H-pyrrolo[2,3-b]-pyridin-3-yl}pyrimidin-2-ylamine]
- IC50 (PDK1): 10 to 1000 nM
- IC50 [1]: 1 to 10 µM

SMILES: CCc1cc(-c2c[nH]c3ncc(-c4cnn(CC(=O)NC)c4)cc23)nc(N)n1 [Compound A51, 2-{4-[3-(2-Amino-6-ethylpyrimidin-4-yl)-1H-pyrrolo[2,3-b]pyridin-5-yl]pyrazol-1-yl}-N-methylacetamide]
- IC50 (PDK1): 10 to 1000 nM
- IC50 [1]: 10 to 20 µM

SMILES: CCc1cc(-c2c[nH]c3ncc(-c4cccc(C(=O)NCCN(C)C)c4)cc23)nc(N)n1 [Compound A11, 3-[3-(2-amino-6-ethylpyrimidin-4-yl)-1H-pyrrolo-[2,3-b]pyridin-5-yl]-N-(2-dimethylaminoethyl)benzamide]
- IC50 (PDK1): 10 to 1000 nM
- IC50 [1]: 10 to 20 µM

SMILES: CN(C)CCn1cc(-c2cnc3[nH]cc(-c4cc(CCN5CCN(C)CC5)nc(N)n4)c3c2)cn1 [Compound A41, 4-{5-[1-(2-Dimethylaminoethyl)-1H-pyrazol-4-yl]-1H-pyrrolo[2,3-b]pyridin-3-yl}-6-[2-(4-methylpiperazin-1-yl)ethyl]pyrimidin-2-ylamine]
- IC50 (PDK1): 10 to 1000 nM
- IC50 [1]: 10 to 20 µM

SMILES: CCc1cc(-c2c[nH]c3ncc(-c4cnn(CCO)c4)cc23)nc(N)n1 [Compound A33, 2-{4-[3-(2-Amino-6-ethylpyrimidin-4-yl)-1H-pyrrolo[2,3-b]pyridin-5-yl]pyrazol-1-yl}ethanol]
- IC50 (PDK1): 10 to 1000 nM
- IC50 [1]: 10 to 20 µM

SMILES: CCc1cc(-c2c[nH]c3ncc(-c4cnn(CC(=O)O)c4)cc23)nc(N)n1 [Compound A31, {4-[3-(2-Amino-6-ethylpyrimidin-4-yl)-1H-pyrrolo[2,3-b]pyridin-5-yl]pyrazol-1-yl}acetylic acid]
- IC50 (PDK1): 10 to 1000 nM
- IC50 [1]: 10 to 20 µM

SMILES: CCc1cc(-c2c[nH]c3ncc(-c4cnn(CC(=O)NC5CC5)c4)cc23)nc(N)n1 [Compound A52, 2-{4-[3-(2-Amino-6-ethylpyrimidin-4-yl)-1H-pyrrolo[2,3-b]pyridin-5-yl]pyrazol-1-yl}-N-cyclopropylacetamide]
- IC50 (PDK1): 10 to 1000 nM
- IC50 [1]: 10 to 20 µM

SMILES: CCc1cc(-c2c[nH]c3ncc(-c4ccc(N5CCNCC5)nc4)cc23)nc(N)n1 [Compound A10, 4-ethyl-6-[5-(6-piperazin-1-ylpyridin-3-yl)-1H-pyrrolo[2,3-b]pyridin-3-yl]pyrimidin-2-ylamine]
- IC50 (PDK1): 10 to 1000 nM
- IC50 [1]: 1 to 10 µM

SMILES: CC(C)n1cc(-c2cnc3[nH]cc(-c4cc(C5(O)CCNCC5)nc(N)n4)c3c2)cn1 [Compound A125, 4-{2-Amino-6-[5-(1-isopropyl-1H-pyrazol-4-yl)-1H-pyrrolo[2,3-b]pyridin-3-yl]-pyrimidin-4-yl}piperidin-4-ol]
- IC50 (PDK1): 1000 to 10000 nM
- IC50 [1]: 10 to 20 µM

SMILES: CC(C)n1cc(-c2cnc3[nH]cc(-c4cc(C5CCCCC5)nc(N)n4)c3c2)cn1 [Compound A111, 4-Cyclohexyl-6-[5-(1-isopropyl-1H-pyrazol-4-yl)-1H-pyrrolo[2,3-b]pyridin-3-yl]pyrimidin-2-ylamine]
- IC50 (PDK1): 10 to 1000 nM
- IC50 [1]: 1 to 10 µM
